“Also recorded” adds a separate entry of the source. Where a name gives a salt, the structure may show the parent alone.
Test: Antagonistic effects on the anesthetic and lethal effects of acetaldehyde in rats
Format: in vivo
Conditions: acetaldehyde 1370 mg/kg oral, hydrochloride
Description: Rats (body weights 250-280 g) fasted for 18 hours were previously dosed orally with each of test compositions Formula A to Formula G as shown in below. Control group received a corresponding volume of saline by the same route. After a predetermined time (45-60 min ), acetaldehyde (1370 mg/kg) was orally administered to the rats and the effect of Formula A to Formula G on the anesthetic and lethal effects of acetaldehyde was observed.
When 1370 mg/kg of acetaldehyde was administered without prior treatment with the test compositions, the rats (control group) fell into anesthesia within several minutes, and then developed dyspnea and the like and 90% of them died within 1 to 6 hours.
The same experiment as Experimental Example I was carried out with each of test compositions Formula H and I and the results obtained are shown in Table 4.

CC(=C(CCO)SSCC1CCCO1)N(C=O)Cc1cnc(C)nc1N (stereo in doubt) [fursultiamine hydrochloride]
antagonizing effect against anesthetic and lethal effects of acetaldehyde (in words): fully effective at the level of addition of 20 mg/kg; also recorded: more effective than thiamine hydrochloride
